Results: ChEMBL document CHEMBL1132731, “Synthesis and antibacterial activities of novel C(3)-aminopyrimidinyl substituted cephalosporins including against respiratory tract pathogens” (2000)
Converted amounts (≈) assume the structure as drawn.

Columns and labels:
Format in all cases: functional
[1] = Minimal inhibitory concentration against Enterococcus faecalis 29212
Escherichia coli = assay: Minimal inhibitory concentration against Escherichia coli 3190Y
[2] = Minimal inhibitory concentration against Haemophilus influenza HIN003, beta lactamase producing resistant strain; details: Haemophilus influenzae
Klebsiella pneumoniae = assay: Minimal inhibitory concentration against Klebsiella pneumonia 2011E
[3] = Minimal inhibitory concentration against Proteus vulgaris 6059
Staphylococcus aureus [4] = assay: Minimal inhibitory concentration against methicillin resistant Staphylococcus aureus 77
Streptococcus pneumoniae = assay: Minimal inhibitory concentration against Streptococcus pneumonia PN010, penicillin resistant
Staphylococcus aureus [5] = assay: Minimal inhibitory concentration against methicillin susceptible Staphylococcus aureus giorgio
[6] = Minimal inhibitory concentration against Moraxella catarrhalis 25240

| Compound | MIC [1] [µg/mL] | MIC (Escherichia coli) [µg/mL] | MIC [2] [µg/mL] | MIC (Klebsiella pneumoniae) [µg/mL] | MIC [3] [µg/mL] | MIC (Staphylococcus aureus [4]) [µg/mL] | MIC (Streptococcus pneumoniae) [µg/mL] | MIC (Staphylococcus aureus [5]) [µg/mL] | MIC [6] [µg/mL] |
| --- | --- | --- | --- | --- | --- | --- | --- | --- | --- |
| Nc1nc(/C(=N/O)C(=O)NC2C(=O)N3C(C(=O)O)=C(SCSc4nc(O)nc(N)c4N)CSC23)c(Cl)s1 (configuration not stated) | 4 (≈ 6.6 µM) | 0.25 (≈ 0.412 µM) | 0.016 (≈ 0.0264 µM) | 1 (≈ 1.65 µM) | 0.25 (≈ 0.412 µM) | 4 (≈ 6.6 µM) | 2 (≈ 3.3 µM) | 0.5 (≈ 0.825 µM) | 0.13 (≈ 0.214 µM) |
| Nc1cc(N)nc(SCSC2=C(C(=O)O)N3C(=O)C(NC(=O)/C(=N\O)c4nc(N)sc4Cl)C3SC2)n1 (configuration not stated) | 4 (≈ 6.78 µM) | 1 (≈ 1.69 µM) | 0.016 (≈ 0.0271 µM) | 8 (≈ 13.6 µM) | 1 (≈ 1.69 µM) | 4 (≈ 6.78 µM) | 1 (≈ 1.69 µM) | 0.5 (≈ 0.847 µM) | 0.13 (≈ 0.22 µM) |
| C=CC1=C(C(=O)O)N2C(=O)[C@@H](NC(=O)/C(=N\O)c3csc(N)n3)[C@H]2SC1 [CEFDINIR] | 8 (≈ 20.2 µM) | 0.031 (≈ 0.0784 µM) | 0.5 (≈ 1.26 µM) | 0.13 (≈ 0.329 µM) | 0.031 (≈ 0.0784 µM) | 4 (≈ 10.1 µM) | 4 (≈ 10.1 µM) | 0.063 (≈ 0.159 µM) | 0.5 (≈ 1.26 µM) |
| C#CCO/N=C(\C(=O)NC1C(=O)N2C(C(=O)O)=C(Sc3cc(N)nc(N)n3)CSC12)c1csc(N)n1 (configuration not stated) | 32 (≈ 58.4 µM) | 0.13 (≈ 0.237 µM) | 0.031 (≈ 0.0566 µM) | 2 (≈ 3.65 µM) | 0.031 (≈ 0.0566 µM) | 4 (≈ 7.3 µM) | 0.25 (≈ 0.457 µM) | 0.5 (≈ 0.913 µM) | 0.016 (≈ 0.0292 µM) |
| Nc1cc(SC2=C(C(=O)O)N3C(=O)C(NC(=O)/C(=N\O)c4csc(N)n4)C3SC2)nc(N)n1 (configuration not stated) | 8 (≈ 15.7 µM) | 0.031 (≈ 0.0608 µM) | 0.13 (≈ 0.255 µM) | 1 (≈ 1.96 µM) | 0.031 (≈ 0.0608 µM) | 2 (≈ 3.92 µM) | 0.5 (≈ 0.981 µM) | 0.25 (≈ 0.491 µM) | < 0.008 |
| Nc1cc(SC2=C(C(=O)O)N3C(=O)C(NC(=O)/C(=N\O)c4nc(N)sc4Cl)C3SC2)nc(N)n1 (configuration not stated) | 2 (≈ 3.68 µM) | 0.25 (≈ 0.46 µM) | 0.5 (≈ 0.919 µM) | 2 (≈ 3.68 µM) | 0.5 (≈ 0.919 µM) | 2 (≈ 3.68 µM) | 1 (≈ 1.84 µM) | 0.25 (≈ 0.46 µM) | < 0.008 |
| CO/N=C(\C(=O)NC1C(=O)N2C(C(=O)O)=C(SCSc3cc(N)nc(N)n3)CSC12)c1csc(N)n1 (configuration not stated) | 64 (≈ 112 µM) | 0.063 (≈ 0.111 µM) | 1 (≈ 1.76 µM) | 0.5 (≈ 0.878 µM) | 0.016 (≈ 0.0281 µM) | 4 (≈ 7.02 µM) | 0.13 (≈ 0.228 µM) | 0.25 (≈ 0.439 µM) | 0.5 (≈ 0.878 µM) |
| CCO/N=C(\C(=O)NC1C(=O)N2C(C(=O)O)=C(Sc3cc(N)nc(N)n3)CSC12)c1csc(N)n1 (configuration not stated) | 64 (≈ 119 µM) | 0.13 (≈ 0.242 µM) | 0.063 (≈ 0.117 µM) | 2 (≈ 3.72 µM) | 0.063 (≈ 0.117 µM) | 4 (≈ 7.44 µM) | 0.5 (≈ 0.93 µM) | 0.5 (≈ 0.93 µM) | < 0.008 |
| Nc1cc(N)nc(SCSC2=C(C(=O)O)N3C(=O)C(NC(=O)/C(=N\O)c4csc(N)n4)C3SC2)n1 (configuration not stated) | 4 (≈ 7.2 µM) | 0.063 (≈ 0.113 µM) | 1 (≈ 1.8 µM) | 0.5 (≈ 0.9 µM) | 0.031 (≈ 0.0558 µM) | 1 (≈ 1.8 µM) | 1 (≈ 1.8 µM) | 0.13 (≈ 0.234 µM) | 1 (≈ 1.8 µM) |
| Nc1cc(SCSC2=C(C(=O)O)N3C(=O)C(NC(=O)/C(=N\O)c4csc(N)n4)C3SC2)nc(N)n1 (configuration not stated) | 1 (≈ 1.8 µM) | 0.031 (≈ 0.0558 µM) | 0.5 (≈ 0.9 µM) | 0.5 (≈ 0.9 µM) | 0.031 (≈ 0.0558 µM) | 1 (≈ 1.8 µM) | 0.5 (≈ 0.9 µM) | 0.13 (≈ 0.234 µM) | 2 (≈ 3.6 µM) |
| Nc1nc(O)cc(SC2=C(C(=O)O)N3C(=O)C(NC(=O)/C(=N\O)c4csc(N)n4)C3SC2)n1 (configuration not stated) | 4 (≈ 7.83 µM) | 0.5 (≈ 0.979 µM) | 1 (≈ 1.96 µM) | 8 (≈ 15.7 µM) | 0.5 (≈ 0.979 µM) | 4 (≈ 7.83 µM) | 1 (≈ 1.96 µM) | 0.5 (≈ 0.979 µM) | < 0.008 |
| Nc1ccnc(SCSC2=C(C(=O)O)N3C(=O)C(NC(=O)/C(=N\O)c4nc(N)sc4Cl)C3SC2)n1 (configuration not stated) | 2 (≈ 3.48 µM) | 1 (≈ 1.74 µM) | 0.25 (≈ 0.435 µM) | 8 (≈ 13.9 µM) | 0.5 (≈ 0.869 µM) | 2 (≈ 3.48 µM) | 1 (≈ 1.74 µM) | 0.25 (≈ 0.435 µM) | 0.5 (≈ 0.869 µM) |
| CO/N=C(\C(=O)NC1C(=O)N2C(C(=O)O)=C(Sc3cc(N)nc(N)n3)CSC12)c1csc(N)n1 (configuration not stated) | > 64 | 0.031 (≈ 0.0592 µM) | 0.016 (≈ 0.0306 µM) | 0.5 (≈ 0.955 µM) | 0.016 (≈ 0.0306 µM) | 4 (≈ 7.64 µM) | 0.5 (≈ 0.955 µM) | 0.5 (≈ 0.955 µM) | < 0.008 |
| Nc1nc(O)cc(SC2=C(C(=O)O)N3C(=O)C(NC(=O)/C(=N\O)c4nc(N)sc4Cl)C3SC2)n1 (configuration not stated) | 8 (≈ 14.7 µM) | 0.063 (≈ 0.116 µM) | 0.016 (≈ 0.0294 µM) | 1 (≈ 1.83 µM) | 0.063 (≈ 0.116 µM) | 2 (≈ 3.67 µM) | 0.5 (≈ 0.917 µM) | 0.25 (≈ 0.459 µM) |  |
| Nc1cc(SCSC2=C(C(=O)O)N3C(=O)C(NC(=O)/C(=N\O)c4nc(N)sc4Cl)C3SC2)nc(N)n1 (configuration not stated) | 1 (≈ 1.69 µM) | 0.25 (≈ 0.424 µM) | 0.5 (≈ 0.847 µM) | 1 (≈ 1.69 µM) | 0.25 (≈ 0.424 µM) | 1 (≈ 1.69 µM) | 0.25 (≈ 0.424 µM) | 0.13 (≈ 0.22 µM) | 0.13 (≈ 0.22 µM) |
| Nc1nc(O)cc(SCSC2=C(C(=O)O)N3C(=O)C(NC(=O)/C(=N\O)c4nc(N)sc4Cl)C3SC2)n1 (configuration not stated) | 1 (≈ 1.69 µM) | 0.25 (≈ 0.423 µM) | 0.031 (≈ 0.0524 µM) | 2 (≈ 3.38 µM) | 0.13 (≈ 0.22 µM) | 1 (≈ 1.69 µM) | 0.5 (≈ 0.846 µM) | 0.13 (≈ 0.22 µM) | 0.063 (≈ 0.107 µM) |
| CCO/N=C(\C(=O)NC1C(=O)N2C(C(=O)O)=C(Sc3cc(N)nc(N)n3)CSC12)c1nsc(N)n1 (configuration not stated) | 64 (≈ 119 µM) | 0.063 (≈ 0.117 µM) | 0.13 (≈ 0.241 µM) | 2 (≈ 3.71 µM) | 0.063 (≈ 0.117 µM) | 4 (≈ 7.43 µM) | 0.25 (≈ 0.464 µM) | 1 (≈ 1.86 µM) | < 0.008 |
